Holding throughout (type): biochemical
One assay concerns the target T1, JAK3 (Homo sapiens, UniProt P52333).
T1 construct: purchased Carna Biosciences, Inc
T1 sequence (P52333 1-1124): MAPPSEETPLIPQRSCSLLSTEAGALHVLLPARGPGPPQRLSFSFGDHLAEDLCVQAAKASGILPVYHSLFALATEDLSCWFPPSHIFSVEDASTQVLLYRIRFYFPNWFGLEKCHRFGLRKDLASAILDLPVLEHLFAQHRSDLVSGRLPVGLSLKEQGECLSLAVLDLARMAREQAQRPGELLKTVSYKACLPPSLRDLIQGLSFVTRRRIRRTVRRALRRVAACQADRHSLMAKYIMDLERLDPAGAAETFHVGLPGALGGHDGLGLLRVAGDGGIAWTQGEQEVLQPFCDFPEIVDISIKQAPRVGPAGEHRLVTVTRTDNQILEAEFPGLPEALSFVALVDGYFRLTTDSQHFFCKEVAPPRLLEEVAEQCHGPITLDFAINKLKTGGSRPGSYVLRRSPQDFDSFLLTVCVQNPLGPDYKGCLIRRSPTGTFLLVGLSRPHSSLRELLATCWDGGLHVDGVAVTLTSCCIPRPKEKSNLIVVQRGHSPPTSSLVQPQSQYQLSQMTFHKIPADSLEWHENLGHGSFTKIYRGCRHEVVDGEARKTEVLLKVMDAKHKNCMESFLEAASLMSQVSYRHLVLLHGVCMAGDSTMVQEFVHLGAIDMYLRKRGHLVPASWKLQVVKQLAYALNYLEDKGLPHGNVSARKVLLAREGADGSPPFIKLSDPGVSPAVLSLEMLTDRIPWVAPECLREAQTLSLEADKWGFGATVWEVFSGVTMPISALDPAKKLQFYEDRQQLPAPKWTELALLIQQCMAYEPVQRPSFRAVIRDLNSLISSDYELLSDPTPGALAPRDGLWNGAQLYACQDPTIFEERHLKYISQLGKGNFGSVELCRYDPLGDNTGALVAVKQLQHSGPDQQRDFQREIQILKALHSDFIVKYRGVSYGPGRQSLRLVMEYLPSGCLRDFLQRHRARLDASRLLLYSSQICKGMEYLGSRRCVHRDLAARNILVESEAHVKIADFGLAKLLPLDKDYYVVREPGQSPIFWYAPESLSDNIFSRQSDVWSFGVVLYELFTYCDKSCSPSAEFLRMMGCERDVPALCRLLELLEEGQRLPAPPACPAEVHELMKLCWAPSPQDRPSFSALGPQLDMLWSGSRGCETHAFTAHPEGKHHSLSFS
Nature of the assay: JAK tyrosine kinase inhibitory activity in the presence of 1 mM ATP (ELISA), JAK3. A digest of the protocol: (§1)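 Kinase reactions ran on streptavidin-coated plates in 15 mM Tris-HCl pH 7.5, 0.01% Tween-20, 1 mM DTT, 30 °C for 1 h. Enzyme was prediluted to 7.5 nM (JAK1) or 0.75 nM (JAK2, JAK3) before addition. Phosphotyrosine was detected with HRP anti-pTyr antibody and TMB at A450.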
(ELISA stands for enzyme-linked immunosorbent assay.)

The next assay addresses T2, JAK2 (Homo sapiens, UniProt O60674).
T2 construct: purchased Carna Biosciences, Inc
Nature of the assay: JAK tyrosine kinase inhibitory activity in the presence of 1 mM ATP (ELISA), JAK2. A digest of the protocol: as §1

For a further assay, the target named is T3, JAK1 (Homo sapiens, UniProt P23458).
T3 construct: purchased Carna Biosciences, Inc
The assay is described as follows: JAK tyrosine kinase inhibitory activity in the presence of 1 mM ATP (ELISA), JAK1. A digest of the protocol:
as §1

Where a name gives a salt, the structure may show the parent alone.

For orientation: IC50 means the concentration needed to halve the response being measured.

T3 sequence (P23458 whole entry): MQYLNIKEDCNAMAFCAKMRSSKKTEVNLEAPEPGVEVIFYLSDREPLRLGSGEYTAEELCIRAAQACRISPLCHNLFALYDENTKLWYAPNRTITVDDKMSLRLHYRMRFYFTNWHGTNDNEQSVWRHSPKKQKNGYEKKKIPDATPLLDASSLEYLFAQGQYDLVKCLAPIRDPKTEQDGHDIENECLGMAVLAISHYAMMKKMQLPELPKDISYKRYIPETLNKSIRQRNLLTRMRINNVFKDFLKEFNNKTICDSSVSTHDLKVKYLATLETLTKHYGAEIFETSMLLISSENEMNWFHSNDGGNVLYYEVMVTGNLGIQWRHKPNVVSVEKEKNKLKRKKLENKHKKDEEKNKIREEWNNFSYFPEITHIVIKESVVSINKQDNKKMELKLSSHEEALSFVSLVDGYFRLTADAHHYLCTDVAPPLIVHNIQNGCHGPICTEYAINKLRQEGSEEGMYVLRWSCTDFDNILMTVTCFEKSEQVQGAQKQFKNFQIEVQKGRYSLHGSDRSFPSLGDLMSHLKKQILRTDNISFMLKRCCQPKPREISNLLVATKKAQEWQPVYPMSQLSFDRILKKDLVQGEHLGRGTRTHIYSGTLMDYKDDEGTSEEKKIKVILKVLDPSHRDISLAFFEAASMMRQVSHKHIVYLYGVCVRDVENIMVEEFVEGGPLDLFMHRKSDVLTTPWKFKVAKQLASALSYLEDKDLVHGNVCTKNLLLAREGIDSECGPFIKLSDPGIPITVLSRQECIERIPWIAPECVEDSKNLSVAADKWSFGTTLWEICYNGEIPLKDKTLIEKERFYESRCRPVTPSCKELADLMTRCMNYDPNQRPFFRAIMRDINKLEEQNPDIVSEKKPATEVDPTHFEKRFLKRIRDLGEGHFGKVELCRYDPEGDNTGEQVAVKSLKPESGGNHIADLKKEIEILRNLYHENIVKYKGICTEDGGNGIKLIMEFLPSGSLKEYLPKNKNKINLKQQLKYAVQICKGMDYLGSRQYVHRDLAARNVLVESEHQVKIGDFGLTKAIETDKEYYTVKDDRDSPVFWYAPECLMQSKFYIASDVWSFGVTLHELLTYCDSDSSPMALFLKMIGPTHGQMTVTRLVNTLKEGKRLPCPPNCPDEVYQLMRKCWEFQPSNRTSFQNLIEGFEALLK
T2 sequence (O60674 whole entry): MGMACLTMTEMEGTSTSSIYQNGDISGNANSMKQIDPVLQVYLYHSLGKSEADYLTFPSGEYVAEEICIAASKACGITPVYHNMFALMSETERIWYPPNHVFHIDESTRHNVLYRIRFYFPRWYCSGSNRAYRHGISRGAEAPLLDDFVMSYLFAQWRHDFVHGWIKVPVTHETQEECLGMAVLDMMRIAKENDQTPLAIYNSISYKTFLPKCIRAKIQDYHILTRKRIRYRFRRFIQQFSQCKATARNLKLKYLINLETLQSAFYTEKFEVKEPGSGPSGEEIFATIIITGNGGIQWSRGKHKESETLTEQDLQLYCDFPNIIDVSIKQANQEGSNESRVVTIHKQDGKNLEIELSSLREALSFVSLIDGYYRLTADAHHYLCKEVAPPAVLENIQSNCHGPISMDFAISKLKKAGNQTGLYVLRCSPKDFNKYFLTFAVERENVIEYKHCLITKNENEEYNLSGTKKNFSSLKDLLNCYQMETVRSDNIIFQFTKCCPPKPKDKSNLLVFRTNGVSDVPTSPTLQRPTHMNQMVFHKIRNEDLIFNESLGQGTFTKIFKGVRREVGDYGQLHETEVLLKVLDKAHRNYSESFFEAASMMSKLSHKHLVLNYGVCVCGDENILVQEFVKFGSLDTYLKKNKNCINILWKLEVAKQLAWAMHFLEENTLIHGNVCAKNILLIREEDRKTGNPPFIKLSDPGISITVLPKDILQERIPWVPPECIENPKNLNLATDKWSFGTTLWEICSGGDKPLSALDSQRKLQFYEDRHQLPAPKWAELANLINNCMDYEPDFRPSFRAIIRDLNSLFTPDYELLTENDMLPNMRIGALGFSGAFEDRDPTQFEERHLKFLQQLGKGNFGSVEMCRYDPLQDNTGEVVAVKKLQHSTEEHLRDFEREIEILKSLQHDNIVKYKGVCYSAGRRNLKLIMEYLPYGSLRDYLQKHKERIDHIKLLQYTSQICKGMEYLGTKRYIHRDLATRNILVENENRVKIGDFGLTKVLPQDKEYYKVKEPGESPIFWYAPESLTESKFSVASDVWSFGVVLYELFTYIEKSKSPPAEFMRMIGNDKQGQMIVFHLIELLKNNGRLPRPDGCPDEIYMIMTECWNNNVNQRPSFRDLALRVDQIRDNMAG

For the compound `CCC(=O)NC1CCN(C(=O)c2cc(OCC(CC)CC)nc(-c3cnn4ccsc34)n2)CC1` [Example 114, N-(1-{[6-(2-Ethylbutoxy)-2-(pyrazolo[5,1-b][1,3]thiazol-7-yl)pyrimidin-4-yl]carbonyl}piperidin-4-yl)propanamide], the values for the IC50 on JAK3, at JAK2 and on JAK1 were 2700 nM, 1200 nM and 360 nM, respectively.
The corresponding values for `CCC(=O)NC1CCN(C(=O)c2cc(N(C)C(CC)CC)nc(-c3cnn4ccsc34)n2)CC1` [Example 116, N-[1-({6-[Methyl(pentan-3-yl)amino]-2-(pyrazolo[5,1-b][1,3]thiazol-7-yl)pyrimidin-4-yl}carbonyl)piperidin-4-yl]propanamide] are 3800 nM, 1900 nM and 210 nM.
The corresponding values for `N#CC1(Nc2cc(C(=O)N3CCC(O)CC3)nc(-c3cnn4ccsc34)n2)CC1` [Example 117, 1-({6-[(4-Hydroxypiperidin-1-yl)carbonyl]-2-(pyrazolo[5,1-b][1,3]thiazol-7-yl)pyrimidin-4-yl}amino)cyclopropanecarbonitrile hydrochloride] are 5700 nM, greater than 10000 nM and 1400 nM.
On the same counts, the results for `CCC(=O)NC1CCN(C(=O)c2cc(NCC(C)(C)OC)nc(-c3cnn4ccsc34)n2)CC1` [Example 119, N-[1-({6-[(2-Methoxy-2-methylpropyl)amino]-2-(pyrazolo[5,1-b][1,3]thiazol-7-yl)pyrimidin-4-yl}carbonyl)piperidin-4-yl]propanamide] are greater than 10000 nM, 4200 nM and 670 nM.
`CCC(CC)N(C)c1cc(C(=O)N2CCC(O)CC2)nc(-c2cnn3ccsc23)n1` [Example 120, (4-Hydroxypiperidin-1-yl){6-[methyl(pentan-3-yl)amino]-2-(pyrazolo[5,1-b][1,3]thiazol-7-yl)pyrimidin-4-yl}methanone hydrochloride]: the concentration for half-maximal inhibition (IC50) at JAK3 worked out at 3400 nM; on JAK2, 3000 nM; on JAK1, 870 nM.
The corresponding values for `CC(C)[C@H](C)Nc1cc(C(=O)N2CCC(NC(=O)C3CC3)CC2)nc(-c2cnn3ccsc23)n1` [Example 123, N-(1-{[6-{[(2S)-3-Methylbutan-2-yl]amino}-2-(pyrazolo[5,1-b][1,3]thiazol-7-yl)pyrimidin-4-yl]carbonyl}piperidin-4-yl)cyclopropanecarboxamide] are 1600 nM, 1400 nM and 260 nM.
On the same counts, the results for `CCC(CC)Nc1cc(C(=O)N2CCC(NC(=O)C3CC3)CC2)nc(-c2cnn3ccsc23)n1` [Example 124, N-(1-{[6-(Pentan-3-ylamino)-2-(pyrazolo[5,1-b][1,3]thiazol-7-yl)pyrimidin-4-yl]carbonyl}piperidin-4-yl)cyclopropanecarboxamide] are 2200 nM, 1700 nM and 220 nM.
On the same counts, the results for `CCC(=O)NC1CCN(C(=O)c2cc(NC3(C)CC3)nc(-c3cnn4ccsc34)n2)CC1` [Example 128, N-[1-({6-[(1-Methylcyclopropyl)amino]-2-(pyrazolo[5,1-b][1,3]thiazol-7-yl)pyrimidin-4-yl}carbonyl)piperidin-4-yl]propanamide] are greater than 10000 nM, 8500 nM and 760 nM.
With `CCC(=O)NC1CCN(C(=O)c2cc(N[C@@H](C)CC)nc(-c3cnn4ccsc34)n2)CC1` [Example 131, N-[1-({6-[(2S)-Butan-2-ylamino]-2-(pyrazolo[5,1-b][1,3]thiazol-7-yl)pyrimidin-4-yl}carbonyl)piperidin-4-yl]propanamide], the results for the IC50 on JAK3, on JAK2 and at JAK1 were 4700 nM, 2200 nM and 310 nM, respectively.

The values above are taken from patent publication US9999622B2, “Pyrazolothiazole compound and medicine comprising same” (NIPPON SHINYAKU CO., LTD., priority 2014, dated 2018).
